Laboratory results reported in US20240252488A1 (KOREA RESEARCH INSTITUTE OF CHEMICAL TECHNOLOGY, priority 2020, published 2024).

Tests used:
[1] = tested on: FADD−/− Jurkat cells; experiment: Necroptosis inhibition assay, TNF-α-induced necroptosis (CellTiter-Glo 2.0); format: cell-based, human; details: TNF-α 15 ng/mL; for Necroptosis inhibition assay (Rescue %) 1 μM: compound 1 μM; for Necroptosis inhibition assay (Rescue %) 10 μM: compound 10 μM
In short: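 Cells at 5.0×10^5 cells/mL were pretreated with compound (final 0.1, 1 and 10 μM) for 30 minutes at room temperature, then given TNF-α at 15 ng/mL final. After 20 to 24 hours at 37° C, 5% CO2, viability was read as ATP luminescence to calculate cytotoxicity and necroptosis inhibition rate.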

[2] = target: T1, MLKL (Homo sapiens, UniProt Q8NB16); experiment: Measurement of binding affinity with MLKL receptor (competitive binding assay, Kd); parameters: made in house; host or cells: HEK 293 cell line (T7 phage in E. coli BL21-derived host is also described)
T1 sequence (Q8NB16 1-471): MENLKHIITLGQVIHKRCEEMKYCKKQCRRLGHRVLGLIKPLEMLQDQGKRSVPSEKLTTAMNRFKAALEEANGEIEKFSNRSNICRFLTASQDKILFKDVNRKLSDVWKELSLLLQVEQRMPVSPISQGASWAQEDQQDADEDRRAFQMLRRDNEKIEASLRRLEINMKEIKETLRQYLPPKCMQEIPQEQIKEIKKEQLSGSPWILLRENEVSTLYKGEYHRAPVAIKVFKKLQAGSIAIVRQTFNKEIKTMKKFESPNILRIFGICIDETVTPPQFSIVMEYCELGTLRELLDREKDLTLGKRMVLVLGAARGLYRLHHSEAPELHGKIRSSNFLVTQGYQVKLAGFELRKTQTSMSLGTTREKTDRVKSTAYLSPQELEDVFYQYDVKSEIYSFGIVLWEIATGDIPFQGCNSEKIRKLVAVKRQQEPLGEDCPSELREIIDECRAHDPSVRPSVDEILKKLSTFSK
In short: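 Kd from an immobilized-ligand competition format: the DNA-tagged kinase from HEK 293 expression is eluted and quantified by qPCR. Compounds added from 111× DMSO stocks, final DMSO 0.9%.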

SMILES | Necroptosis inhibition assay (Rescue %) 1 μM [1] | Kd [2] | Necroptosis inhibition assay (Rescue %) 10 μM [1]
CC(C)(C)OC(=O)N1CCC(n2cc(-c3cnc(N)c(C(=O)N[C@@H](C(=O)Nc4ccc(F)cc4)c4ccccc4)n3)cn2)CC1 [TDH-098, tert-butyl (R)-4-(4-(5-amino-6-((2-((4-fluorophenyl)amino)-2-oxo-1-phenylethyl)carbamoyl)pyrazin-2-yl)-1H-pyrazol-1-yl)piperidine-1-carboxylate] | 3.54% | 0.2 µM | –
Nc1ncc(-c2cnn(C3CCN(CCCCCCCCCCNC(=O)CNc4ccc5c(c4)C(=O)N(C4CCC(=O)NC4=O)C5=O)CC3)c2)nc1C(=O)O[C@@H](C(=O)Nc1ccc(F)cc1)c1ccccc1 (stereo partly drawn) [TDH-162, (R)-2-((4-fluorophenyl)amino)-2-oxo-1-phenylethyl 3-amino-6-(1-(1-(10-(2-((2-(2,6-dioxopiperidin-3-yl)-1,3-dioxoisoindolin-5-yl)amino)acetamido)decyl)piperidin-4-yl)-1H-pyrazol-4-yl)pyrazine-2-carboxylate] | 36.55% | 0.011 µM | 26.25%
Nc1ncc(C2=CCN(C(=O)CCCCCNC(=O)CNc3ccc4c(c3)C(=O)N(C3CCC(=O)NC3=O)C4=O)CC2)cc1C(=O)O[C@@H](C(=O)Nc1ccc(F)cc1)c1ccccc1 (stereo partly drawn) [TDH-072, (R)-2-((4-fluorophenyl)amino)-2-oxo-1-phenylethyl 6-amino-1′-(6-(2-((2-(2,6-dioxopiperidin-3-yl)-1,3-dioxoisoindolin-5-yl)amino)acetamido)hexanoyl)-1′,2′,3′,6′-tetrahydro-[3,4′-bipyridine]-5-carboxylate] | 12.25% | 0.03 µM | 1.53%
Nc1ncc(C2=CCN(C(=O)CCCCCNC(=O)COc3cccc4c3C(=O)N(C3CCC(=O)NC3=O)C4=O)CC2)cc1C(=O)O[C@@H](C(=O)Nc1ccc(F)cc1)c1ccccc1 (stereo partly drawn) [TDH-081, (R)-2-((4-fluorophenyl)amino)-2-oxo-1-phenylethyl 6-amino-1′-(6-(2-((2-(2,6-dioxopiperidin-3-yl)-1,3-dioxoisoindolin-4-yl)oxy)acetamido)hexanoyl)-1′,2′,3′,6′-tetrahydro-[3,4′-bipyridine]-5-carboxylate] | 6.8% | 0.05 µM | –
Nc1ncc(C2=CCN(C(=O)CCCCCNc3cccc4c3C(=O)N(C3CCC(=O)NC3=O)C4=O)CC2)cc1C(=O)O[C@@H](C(=O)Nc1ccc(F)cc1)c1ccccc1 (stereo partly drawn) [TDH-073, (R)-2-((4-fluorophenyl)amino)-2-oxo-1-phenylethyl 6-amino-1′-(6-((2-(2,6-dioxopiperidin-3-yl)-1,3-dioxoisoindolin-4-yl)amino)hexanoyl)-1′,2′,3′,6′-tetrahydro-[3,4′-bipyridine]-5-carboxylate] | – | 0.21 µM | 3.26%
Nc1ncc(-c2cnn(C3CCN(CCOCCOCCNc4ccc5c(c4)C(=O)N(C4CCC(=O)NC4=O)C5=O)CC3)c2)nc1C(=O)O[C@@H](C(=O)Nc1ccc(F)cc1)c1ccccc1 (stereo partly drawn) [TDH-122, (R)-2-((4-fluorophenyl)amino)-2-oxo-1-phenylethyl 3-amino-6-(1-(1-(2-(2-(2-((2-(2,6-dioxopiperidin-3-yl)-1,3-dioxoisoindolin-5-yl)amino)ethoxy)ethoxy)ethyl)piperidin-4-yl)-1H-pyrazol-4-yl)pyrazine-2-carboxylate] | 20.17% | 0.0018 µM | –
Nc1ncc(C2=CCN(C(=O)COCCOCCNC(=O)CNc3cccc4c3C(=O)N(C3CCC(=O)NC3=O)C4=O)CC2)cc1C(=O)O[C@@H](C(=O)Nc1ccc(F)cc1)c1ccccc1 (stereo partly drawn) [TDH-084, (R)-2-((4-fluorophenyl)amino)-2-oxo-1-phenylethyl 6-amino-1′-(2-(2-(2-(2-((2-(2,6-dioxopiperidin-3-yl)-1,3-dioxoisoindolin-4-yl)amino)acetamido)ethoxy)ethoxy)acetyl)-1′,2′,3′,6′-tetrahydro-[3,4′-bipyridine]-5-carboxylate] | 14.91% | 0.019 µM | 3.95%
Nc1ncc(-c2cnn(C3CCN(CCOCCOCCNc4cccc5c4C(=O)N(C4CCC(=O)NC4=O)C5=O)CC3)c2)nc1C(=O)N[C@@H](C(=O)Nc1ccc(F)cc1)c1ccccc1 (stereo partly drawn) [TDH-215, 3-amino-6-(1-(1-(2-(2-(2-((2-(2,6-dioxopiperidin-3-yl)-1,3-dioxoisoindolin-4-yl)amino)ethoxy)ethoxy)ethyl)piperidin-4-yl)-1H-pyrazol-4-yl)-N-((R)-2-((4-fluorophenyl)amino)-2-oxo-1-phenylethyl)pyrazine-2-carboxamide] | 15.33% | 0.091 µM | 21.83%
Nc1ncc(-c2ccc(N3CCN(CC4CCN(C(=O)CNc5cccc6c5C(=O)N(C5CCC(=O)NC5=O)C6=O)CC4)CC3)nc2)nc1C(=O)OC(C(=O)Nc1ccc(F)cc1)c1ccccc1 (stereo not drawn) [TDH-232, 2-((4-fluorophenyl)amino)-2-oxo-1-phenylethyl 3-amino-6-(6-(4-((1-((2-(2,6-dioxopiperidin-3-yl)-1,3-dioxoisoindolin-4-yl)glycyl)piperidin-4-yl)methyl)piperazin-1-yl)pyridin-3-yl)pyrazine-2-carboxylate] | 3.46% | 0.26 µM | –
Nc1ncc(-c2cnn(C3CCN(CCCCCCCCCCNC(=O)CNc4cccc5c4C(=O)N(C4CCC(=O)NC4=O)C5=O)CC3)c2)nc1C(=O)O[C@@H](C(=O)Nc1ccc(F)cc1)c1ccccc1 (stereo partly drawn) [TDH-161, (R)-2-((4-fluorophenyl)amino)-2-oxo-1-phenylethyl 3-amino-6-(1-(1-(10-(2-((2-(2,6-dioxopiperidin-3-yl)-1,3-dioxoisoindolin-4-yl)amino)acetamido)decyl)piperidin-4-yl)-1H-pyrazol-4-yl)pyrazine-2-carboxylate] | 25.81% | 0.029 µM | 35.81%
Nc1ncc(C2=CCN(C(=O)CCCCCNC(=O)CNc3cccc4c3C(=O)N(C3CCC(=O)NC3=O)C4=O)CC2)cc1C(=O)O[C@@H](C(=O)Nc1ccc(F)cc1)c1ccccc1 (stereo partly drawn) [TDH-079, (R)-2-((4-fluorophenyl)amino)-2-oxo-1-phenylethyl 6-amino-1′-(6-(2-((2-(2,6-dioxopiperidin-3-yl)-1,3-dioxoisoindolin-4-yl)amino)acetamido)hexanoyl)-1′,2′,3′,6′-tetrahydro-[3,4′-bipyridine]-5-carboxylate] | – | 0.045 µM | 0.94%
Nc1ncc(-c2cnn(C3CCN(CCOCCOCCNC(=O)C4CCN(c5ccc6c(c5)C(=O)N(C5CCC(=O)NC5=O)C6=O)CC4)CC3)c2)nc1C(=O)N[C@@H](C(=O)Nc1ccc(F)cc1)c1ccccc1 (stereo partly drawn) [TDH-214, 3-amino-6-(1-(1-(2-(2-(2-(1-(2-(2,6-dioxopiperidin-3-yl)-1,3-dioxoisoindolin-5-yl)piperidine-4-carboxamido)ethoxy)ethoxy)ethyl)piperidin-4-yl)-1H-pyrazol-4-yl)-N-((R)-2-((4-fluorophenyl)amino)-2-oxo-1-phenylethyl)pyrazine-2-carboxamide] | 26.74% | 0.18 µM | 48.41%
